These are literature values, as cited in patent US6368586B1, “Methods and compositions for enhancing the bioadhesive properties of polymers” (Brown University Research Foundation, priority 1996, dated 2002).

SMILES strings stand for the structures. Where two headings read alike, the source gives them in different places.

As to `[Al+3]` [Al^3+], the “Acid Ionization Constants (pKa at 25° C.) for Aqua Ions” value (shortened to “Acid Ionization Constants”) is on record as 4.9. Regarding `[Ba+2]` [Ba^2+], the “Acid Ionization Constants” value is given as 13.2.

Turning to `[Ca+2]` [Ca^2+], the “Acid Ionization Constants” value was 12.6. In the case of `[Cu+2]` [Cu^2+], the “Acid Ionization Constants” value is given as 8.0. Take `[Fe+2]` [Fe^2+]: the “Acid Ionization Constants” value was 8.3. For the same compound, for the setting “listed as Fe^3+”, the “Acid Ionization Constants” value is on record as 2.2.

Turning to `[Mg+2]` [Mg^2+], the “Acid Ionization Constants” value is 11.4. On to `[Ni+2]` [Ni^2+], for which the “Acid Ionization Constants” value is recorded as 10.6. Also, the “Acid Ionization Constants” value (listed as Ni^3+) is given as 9.7.
